Source: US7262151B2, “Methods and compositions for production of lipo-chito oligosaccharides by rhizobacteria” (McGill University, priority 2001, dated 2007)
Where two headings read alike, the source gives them in different places.

How the values were obtained:
Type in all cases: cell-based
[1] = tested on: nod genes in Bradyrhizobium japonicum strain USDA3; details: for expression of nod genes (β-galactosidase assay), in words: 5-100 μM tested, FIG. 6; for nod gene induction at optimum concentration compared with optimum JA and MeJA concentrations / optimum concentration for nod gene induction: USDA3, β-galactosidase assay; for inhibitory or inducing activity in combinations (β-galactosidase assay): 25 and 50 μM with JA, MeJA and genistein (5 μM), FIGS. 3, 4, and 5; for nod gene induction (β-galactosidase activity): USDA3 (GG4), control 362 ± 25; for induction of nod genes (β-galactosidase activity vs control without inducer), in words: all concentrations, FIG. 1
Method: Bradyrhizobium japonicum strain USDA3, harboring plasmid GG4, was used in the experiment. Plasmid GG4 contains a translational fusion between B. japonicum nod Y open-reading frame and lac Z of Escherichia coli.
(§1) Bacteria were grown in yeast extract mannitol (YEM) medium (mannitol 10.0 g, K2HPO4 0.5 g, MgSO4.7H2O 0.2 g, NaCl 0.1 g, and yeast extract 0.4 g dissolved in 1000 mL of dd H2O). In order to ensure the maintenance of the strains, tetracycline was added to the bacterial cultures at a concentration of 20 mg 1^−1. One hundred mL cultures of each strain, in 250 mL flasks, were shaken at 150 rev min^−1 at 30° C. for 3-5 days and then subcultured into 400 mL of fresh medium in 1000 mL flasks. The cultures were incubated until the OD620 reached 0.2-0.3. The cultures were then divided into 5 mL tubes (sterilized).
(§2) Stock solutions of various inducers: genistein, salicylic acid and acetylsalicylic acid made in methanol and linolenic, linoleic, and jasmonic acid and methyl jasmonate were made in ethanol, and an appropriate amount of these inducers was added into the tubes before addition of bacterial culture. In the tubes, the final concentration of all the inducers was maintained as 5, 10, 25, 50 and 100 μM. Tubes were collected after 18 h of incubation and stored at −20° C. until the β-galactosidase activity was measured. Genistein (4′,5,7, trihydroxyisoflavone, purity 98%,), linolenic acid (9,12,15-Octadecatrienoic acid, purity 99%), linoleic acid (cis-9, cis-12-Octadecadienoic acid, purity 99%), jasmonic acid (±Jasmonic acid, C12H18O3) and salicylic acid (2-hydroxybenzoic acid, purity 99.0%) were obtained from Sigma, while acetylsalicylic acid (C9H8O4, 99% purity) was obtained from Acros and methyl jasmonate (95% purity) was obtained from Aldrich Chemical Company, Inc.
(§3) β-galactosidase is an enzyme which hydrolyzes β-D-galactosides. The activity of this enzyme can easily be measured with colorless substrates, which upon hydrolysis produce colored products. O-nitrophenyl-β-galactoside (ONPG) is a colorless compound and is converted to galactose and O-nitrophenol in the presence of β-galactosidase. The O-nitrophenol is yellow and can be measured by its absorption at 420 nm. In the present study, nod gene expression was indirectly measured by β-galactosidase activity following the method of Miller (1972) as modified by Stachel et al, (1985). Briefly, 0.5 mL culture was mixed with 2×Z buffer (Na2HPO4.7H2O, 16.1 g, NaH2PO4.H2O, 5.5 g, KCl 0.75 g, MgSO4.7H2O 0.246 g, β-mercaptoethanol 2.7 g, pH 7.0 dissolved in 500 mL water) and 40 μL toluene and vortexed for 10 seconds. The culture was then incubated in a water bath at 37° C. for 30 minutes and then 0.2 mL of O-nitrophenyl β-D-galactopyranoside (ONPG) was added at a concentration of 4 mg mL^−1. The cultures were incubated again in the water bath until the color of the culture changed. The reaction time was recorded and the reaction was stopped with 1M Na2CO3. After centrifugation at 10,000 rpm for 4 minutes, spectrophotometric reading at OD420 and OD600 were taken and the β-galactosidase activity was measured (β-galactosidase activity=OD420*1000/OD600*T*V, where T is the reaction time and V is the volume of the bacterial culture used for enzyme assay).
The experiment was designed in a randomized complete block design (RCBD) with three replicates. […] Data are shown from the second experiment. Statistical analysis of the data was done with analysis of variance using the Statistical Analysis System computer package (SAS Institute, 1988). Comparisons among treatment means were made with an ANOVA protected LSD at the 0.05 level of statistical significance.

[2] = tested on: nod genes in Bradyrhizobium japonicum strain USDA31; test: nod gene induction, β-galactosidase assay, strain USDA31 (GG1)
Method: as §1, §2, §3
(§4) The effect of 0-100 μM concentrations of each of acetylsalicylic acid, salicylic acid, jasmonic acid, methyl jasmonate, and genistein, on induction of nod gene expression in Bradyrhizobium japonicum strains USDA31, USDA76, USDA121, and USDA3, was evaluated in accordance with the β-galactosidase assay of Experiment 1 in Example 1 above.

[3] = tested on: nod genes in Bradyrhizobium japonicum strain USDA76; test: nod gene induction, β-galactosidase assay, strain USDA 76 (GG2); details: control 411.8 ± 26.8
Method: as §1, §2, §3, §4

[4] = tested on: nod genes in Bradyrhizobium japonicum strain USDA121; test: nod gene induction, β-galactosidase assay, strain USDA121 (GG3); details: control 476.8 ± 86.6
Method: as §1, §2, §3, §4

[5] = 5 μM, control without inducer 522.6 ± 15.9

Structure (SMILES)	expression of nod genes (β-galactosidase assay), in words [1]	nod gene induction at optimum concentration compared with optimum JA and MeJA concentrations [1]	optimum concentration for nod gene induction [1] [µM]	nod gene induction (β-galactosidase activity) [2, 5]	nod gene induction (β-galactosidase activity) ([2]; 10 μM, control 522.6 ± 15.9)	nod gene induction (β-galactosidase activity) ([2]; 25 μM, control 522.6 ± 15.9)	nod gene induction (β-galactosidase activity) ([2]; 50 μM, control 522.6 ± 15.9)	nod gene induction (β-galactosidase activity) ([2]; 100 μM, control 522.6 ± 15.9)	nod gene induction (β-galactosidase activity) ([3]; 5 μM)	nod gene induction (β-galactosidase activity) ([3]; 10 μM)	nod gene induction (β-galactosidase activity) ([3]; 25 μM)	nod gene induction (β-galactosidase activity) ([3]; 50 μM)	nod gene induction (β-galactosidase activity) ([3]; 100 μM)	nod gene induction (β-galactosidase activity) ([4]; 5 μM)	nod gene induction (β-galactosidase activity) ([4]; 10 μM)	nod gene induction (β-galactosidase activity) ([4]; 25 μM)	nod gene induction (β-galactosidase activity) ([4]; 50 μM)	nod gene induction (β-galactosidase activity) ([4]; 100 μM)	inhibitory or inducing activity in combinations (β-galactosidase assay) [1]	nod gene induction (β-galactosidase activity) ([1]; 5 μM)	other results
CC/C=C\C/C=C\C/C=C\CCCCCCCC(=O)O [linolenic acid, (Z,Z,Z)-9,12,15-Octadecatrienoic acid]	induced the expression of nod genes	lower	50	–	–	–	–	–	–	–	–	–	–	–	–	–	–	–	–	–	–
O=C(O)c1ccccc1O [SA, 2-hydroxybenzoic acid]	–	–	–	587 ± 66.6	536.4 ± 40.1	522.4 ± 65.3	476.1 ± 28.4	519.3 ± 43.5	562.2 ± 26.6	411.8 ± 75.3	473 ± 58.3	464.6 ± 36.2	430.7 ± 55.3	404.1 ± 62.5	472.7 ± 54.3	435.8 ± 69.2	434.2 ± 26.3	369.8 ± 114.9	did not show inhibitory or inducing activity	398 ± 13	nod gene induction (β-galactosidase activity) ([1]; 10 μM): 402 ± 33; nod gene induction (β-galactosidase activity) ([1]; 25 μM): 414 ± 17; nod gene induction (β-galactosidase activity) ([1]; 50 μM): 435 ± 26; nod gene induction (β-galactosidase activity) ([1]; 100 μM): 515 ± 583; induction of nod genes (β-galactosidase activity vs control without inducer), in words [1]: did not show any activity
CC(=O)Oc1ccccc1C(=O)O [ASA, acetylsalicylic acid]	–	–	–	636.5 ± 66.9	563.3 ± 37.9	719.5 ± 75.2	676.6 ± 85.8	384.8 ± 34.4	363.2 ± 34.1	341 ± 21.1	418.8 ± 59.5	376.2 ± 37.2	413.1 ± 85.5	422.6 ± 64.9	425 ± 39.4	479.9 ± 88.6	445.4 ± 99	325.6 ± 58.8	did not show inhibitory or inducing activity	396 ± 14.7	nod gene induction (β-galactosidase activity) ([1]; 10 μM): 372 ± 16; nod gene induction (β-galactosidase activity) ([1]; 25 μM): 382 ± 16; nod gene induction (β-galactosidase activity) ([1]; 50 μM): 464 ± 7; nod gene induction (β-galactosidase activity) ([1]; 100 μM): 527 ± 36; induction of nod genes (β-galactosidase activity vs control without inducer), in words [1]: did not show any activity
CCCCC/C=C\C/C=C\CCCCCCCC(=O)O [linoleic acid, (Z,Z)-9,12-Octadecadienoic acid]	induced the expression of nod genes	lower	50	–	–	–	–	–	–	–	–	–	–	–	–	–	–	–	–	–	–
